Assay results: patent US8242085B2, “Tetrahydrofuro [3,4-D] dioxolane compounds for use in the treatment of viral infections and cancer” (BioCryst Pharmaceuticals, Inc., priority 2007, dated 2012)

Assay: in vivo test of prodrug hydrolysis to active compound
Conditions: tested in vivo

Q: With `C[C@@]12OC(c3ccc(Cl)cc3)O[C@@H]1[C@@H](CO)O[C@H]2c1coc2c(N)ncnc12` (stereo partly drawn) [Example 1, ((3aR,4R,6S,6aS)-6-(4-Aminofuro[3,2-d]pyrimidin-7-yl)-2-(4-chlorophenyl)-6a-methyltetrahydrofuro[3,4-d][1,3]dioxol-4-yl)methanol] as the compound, how does the “hydrolysis of prodrug in vivo” value read?
A: hydrolyzes in vivo to provide an active compound
